Patent publication US12396461B2, “Functional peptides having antimicrobial activity against phytopathogenic microorganisms” (TOYOTA JIDOSHA KABUSHIKI KAISHA, priority 2019, dated 2025)
Several values for one entry are separate records, joined by “and”; a condition that tells them apart may be missing. Equal entries are not always repeated. Where two headings read alike, the source gives them in different places.

Key:
Fusarium oxysporum = assay type: cell-based; set-up: key to Plate antimicrobial activity test Fusarium oxysporum, level: a case where hyphae extended to the entire well and no antimicrobial activity was found is defined as “level 0,”; a case where hyphae extended to less than a half of the well and thus the peptide inhibited the growth of the hyphae is defined as “level 1,”; a case where ungerminated spores were present and the peptide partially inhibited the germination is defined as “level 2,”; a case where all spores were ungerminated and the peptide completely inhibited the germination is defined as “level 3.”
Botrytis cinerea = assay type: cell-based; set-up: key to Plate antimicrobial activity test Botrytis cinerea, level: a case where hyphae extended to the entire well and no antimicrobial activity was found is defined as “level 0,”; a case where hyphae extended to less than a half of the well and thus the peptide inhibited the growth of the hyphae is defined as “level 1,”; a case where ungerminated spores were present and the peptide partially inhibited the germination is defined as “level 2,”; a case where all spores were ungerminated and the peptide completely inhibited the germination is defined as “level 3.”; conditions: 25° C. for 1 day or 2 days, microscopic observation
Pyricularia oryzae = assay type: cell-based; set-up: key to Plate antimicrobial activity test Pyricularia oryzae, level: a case where hyphae extended to the entire well and no antimicrobial activity was found is defined as “level 0,”; a case where hyphae extended to less than a half of the well and thus the peptide inhibited the growth of the hyphae is defined as “level 1,”; a case where ungerminated spores were present and the peptide partially inhibited the germination is defined as “level 2,”; a case where all spores were ungerminated and the peptide completely inhibited the germination is defined as “level 3.”; conditions: 25° C. for 1 day or 2 days, microscopic observation
[1] = test system: Colletotrichum destructivum; assay type: cell-based; set-up: key to Plate antimicrobial activity test Colletotrichum destructivum, level: a case where hyphae extended to the entire well and no antimicrobial activity was found is defined as “level 0,”; a case where hyphae extended to less than a half of the well and thus the peptide inhibited the growth of the hyphae is defined as “level 1,”; a case where ungerminated spores were present and the peptide partially inhibited the germination is defined as “level 2,”; a case where all spores were ungerminated and the peptide completely inhibited the germination is defined as “level 3.”; conditions: 25° C. for 1 day or 2 days, microscopic observation
[2] = test system: Colletotrichum orbiculare; assay type: cell-based; set-up: key to Plate antimicrobial activity test Colletotrichum orbiculare, level: a case where hyphae extended to the entire well and no antimicrobial activity was found is defined as “level 0,”; a case where hyphae extended to less than a half of the well and thus the peptide inhibited the growth of the hyphae is defined as “level 1,”; a case where ungerminated spores were present and the peptide partially inhibited the germination is defined as “level 2,”; a case where all spores were ungerminated and the peptide completely inhibited the germination is defined as “level 3.”; conditions: 25° C. for 1 day or 2 days, microscopic observation
[3] = test system: Colletotrichum destructivum; experiment: Colletotrichum destructivum leaf inoculation test (Chinese cabbage leaf); assay type: in vivo; conditions: peptide 100 μM; Chinese cabbage leaf, 25° C. for 4 days, lesions by visual inspection; symbols ◯/Δ/X not defined
Method: In the present example, a suspension comprising Colletotrichum destructivum and a peptide to be tested was dropped on a plant leaf, and lesions were then observed by visual inspection to evaluate the antimicrobial activity of the tested peptide. First, the pores of Colletotrichum destructivum were suspended in water to result in a spore concentration of 5×10^5 spores/ml, so as to prepare a water suspension of spores. Subsequently, a peptide to be tested (TsORF6-1) was added to the water suspension of spores, so that the final concentration of the peptide to be tested became 0 μM, 1 μM, 10 μM or 100 μM. Thereafter, 10 μl each of the water suspension of spores containing the peptide to be tested was dropped on the front side and the back side of the leaf of Chinese cabbage (variety name: “Kigokoro 85”). In this condition, incubation was carried out at 25° C. for 4 days. Thereafter, the front and back sides of the leaf were observed by visual inspection.

[4] = test system: plant pathogenic filamentous fungi; assay type: cell-based; conditions: Table 3

## KKVAK (listed as Solanum lycopersicum) [TsORF6-1-5aa-14, partial peptide of TsORF6-1, 5 amino acid residues]
Fusarium oxysporum
  Plate antimicrobial activity test Fusarium oxysporum, level: 0
Botrytis cinerea; peptide 1 μM
  Plate antimicrobial activity test Botrytis cinerea, level: 0
Botrytis cinerea; peptide 10 μM
  Plate antimicrobial activity test Botrytis cinerea, level: 0
Botrytis cinerea; peptide 100 μM
  Plate antimicrobial activity test Botrytis cinerea, level: 0
Pyricularia oryzae; peptide 1 μM
  Plate antimicrobial activity test Pyricularia oryzae, level: 0
Pyricularia oryzae; peptide 10 μM
  Plate antimicrobial activity test Pyricularia oryzae, level: 0
Pyricularia oryzae; peptide 100 μM
  Plate antimicrobial activity test Pyricularia oryzae, level: 0
[1]; peptide 1 μM
  Plate antimicrobial activity test Colletotrichum destructivum, level: 0
[1]; peptide 10 μM
  Plate antimicrobial activity test Colletotrichum destructivum, level: 0
[1]; peptide 100 μM
  Plate antimicrobial activity test Colletotrichum destructivum, level: 0
[2]; peptide 1 μM
  Plate antimicrobial activity test Colletotrichum orbiculare, level: 0
[2]; peptide 10 μM
  Plate antimicrobial activity test Colletotrichum orbiculare, level: 0
[2]; peptide 100 μM
  Plate antimicrobial activity test Colletotrichum orbiculare, level: 0
[3]
  Leaf inoculation test Chinese cabbage/Colletotrichum destructivum: Δ

## KVAKM (listed as Solanum lycopersicum) [TsORF6-1-5aa-15, partial peptide of TsORF6-1, 5 amino acid residues]
Fusarium oxysporum
  Plate antimicrobial activity test Fusarium oxysporum, level: 0
Botrytis cinerea; peptide 1 μM
  Plate antimicrobial activity test Botrytis cinerea, level: 0
Botrytis cinerea; peptide 10 μM
  Plate antimicrobial activity test Botrytis cinerea, level: 0
Botrytis cinerea; peptide 100 μM
  Plate antimicrobial activity test Botrytis cinerea, level: 0
Pyricularia oryzae; peptide 1 μM
  Plate antimicrobial activity test Pyricularia oryzae, level: 0
Pyricularia oryzae; peptide 10 μM
  Plate antimicrobial activity test Pyricularia oryzae, level: 0
Pyricularia oryzae; peptide 100 μM
  Plate antimicrobial activity test Pyricularia oryzae, level: 0
[1]; peptide 1 μM
  Plate antimicrobial activity test Colletotrichum destructivum, level: 0
[1]; peptide 10 μM
  Plate antimicrobial activity test Colletotrichum destructivum, level: 0
[1]; peptide 100 μM
  Plate antimicrobial activity test Colletotrichum destructivum, level: 0
[2]; peptide 1 μM
  Plate antimicrobial activity test Colletotrichum orbiculare, level: 0
[2]; peptide 10 μM
  Plate antimicrobial activity test Colletotrichum orbiculare, level: 0
[2]; peptide 100 μM
  Plate antimicrobial activity test Colletotrichum orbiculare, level: 0
[3]
  Leaf inoculation test Chinese cabbage/Colletotrichum destructivum: Δ

## KVKNK (listed as Solanum lycopersicum) [TsORF6-1-5aa-10, partial peptide of TsORF6-1, 5 amino acid residues]
Fusarium oxysporum
  Plate antimicrobial activity test Fusarium oxysporum, level: 0 and 1
Botrytis cinerea; peptide 1 μM
  Plate antimicrobial activity test Botrytis cinerea, level: 0
Botrytis cinerea; peptide 10 μM
  Plate antimicrobial activity test Botrytis cinerea, level: 0
Botrytis cinerea; peptide 100 μM
  Plate antimicrobial activity test Botrytis cinerea, level: 0
Pyricularia oryzae; peptide 1 μM
  Plate antimicrobial activity test Pyricularia oryzae, level: 0
Pyricularia oryzae; peptide 10 μM
  Plate antimicrobial activity test Pyricularia oryzae, level: 0
Pyricularia oryzae; peptide 100 μM
  Plate antimicrobial activity test Pyricularia oryzae, level: 0
[1]; peptide 1 μM
  Plate antimicrobial activity test Colletotrichum destructivum, level: 0
[1]; peptide 10 μM
  Plate antimicrobial activity test Colletotrichum destructivum, level: 0
[1]; peptide 100 μM
  Plate antimicrobial activity test Colletotrichum destructivum, level: 0
[2]; peptide 1 μM
  Plate antimicrobial activity test Colletotrichum orbiculare, level: 0
[2]; peptide 10 μM
  Plate antimicrobial activity test Colletotrichum orbiculare, level: 0
[2]; peptide 100 μM
  Plate antimicrobial activity test Colletotrichum orbiculare, level: 0
[3]
  Leaf inoculation test Chinese cabbage/Colletotrichum destructivum: Δ

## KVMIV (listed as Solanum lycopersicum) [TsORF6-1-5aa-2, partial peptide of TsORF6-1, 5 amino acid residues]
Fusarium oxysporum
  Plate antimicrobial activity test Fusarium oxysporum, level: 0
Botrytis cinerea; peptide 1 μM
  Plate antimicrobial activity test Botrytis cinerea, level: 0
Botrytis cinerea; peptide 10 μM
  Plate antimicrobial activity test Botrytis cinerea, level: 0
Botrytis cinerea; peptide 100 μM
  Plate antimicrobial activity test Botrytis cinerea, level: 1
Pyricularia oryzae; peptide 1 μM
  Plate antimicrobial activity test Pyricularia oryzae, level: 0
Pyricularia oryzae; peptide 10 μM
  Plate antimicrobial activity test Pyricularia oryzae, level: 0
Pyricularia oryzae; peptide 100 μM
  Plate antimicrobial activity test Pyricularia oryzae, level: 0
[1]; peptide 1 μM
  Plate antimicrobial activity test Colletotrichum destructivum, level: 0
[1]; peptide 10 μM
  Plate antimicrobial activity test Colletotrichum destructivum, level: 0
[1]; peptide 100 μM
  Plate antimicrobial activity test Colletotrichum destructivum, level: 1
[2]; peptide 1 μM
  Plate antimicrobial activity test Colletotrichum orbiculare, level: 0
[2]; peptide 10 μM
  Plate antimicrobial activity test Colletotrichum orbiculare, level: 0
[2]; peptide 100 μM
  Plate antimicrobial activity test Colletotrichum orbiculare, level: 1
[4]
  germination inhibitory activity against plant pathogenic filamentous fungi, result in words: extremely excellent germination inhibitory activity
[3]
  Leaf inoculation test Chinese cabbage/Colletotrichum destructivum: ◯

## VKTKV (listed as Solanum lycopersicum) [TsORF6-1-5aa-7, partial peptide of TsORF6-1, 5 amino acid residues]
Fusarium oxysporum
  Plate antimicrobial activity test Fusarium oxysporum, level: 0
Botrytis cinerea; peptide 1 μM
  Plate antimicrobial activity test Botrytis cinerea, level: 0
Botrytis cinerea; peptide 10 μM
  Plate antimicrobial activity test Botrytis cinerea, level: 0
Botrytis cinerea; peptide 100 μM
  Plate antimicrobial activity test Botrytis cinerea, level: 0
Pyricularia oryzae; peptide 1 μM
  Plate antimicrobial activity test Pyricularia oryzae, level: 0
Pyricularia oryzae; peptide 10 μM
  Plate antimicrobial activity test Pyricularia oryzae, level: 0
Pyricularia oryzae; peptide 100 μM
  Plate antimicrobial activity test Pyricularia oryzae, level: 0
[1]; peptide 1 μM
  Plate antimicrobial activity test Colletotrichum destructivum, level: 0
[1]; peptide 10 μM
  Plate antimicrobial activity test Colletotrichum destructivum, level: 0
[1]; peptide 100 μM
  Plate antimicrobial activity test Colletotrichum destructivum, level: 0
[2]; peptide 1 μM
  Plate antimicrobial activity test Colletotrichum orbiculare, level: 0
[2]; peptide 10 μM
  Plate antimicrobial activity test Colletotrichum orbiculare, level: 0
[2]; peptide 100 μM
  Plate antimicrobial activity test Colletotrichum orbiculare, level: 0

## VKTKVKNK (listed as Solanum lycopersicum) [TsORF6-1-8aa-7, partial peptide of TsORF6-1, 8 amino acid residues]
Fusarium oxysporum
  Plate antimicrobial activity test Fusarium oxysporum, level: 0
Botrytis cinerea; peptide 1 μM
  Plate antimicrobial activity test Botrytis cinerea, level: 0
Botrytis cinerea; peptide 10 μM
  Plate antimicrobial activity test Botrytis cinerea, level: 0
Botrytis cinerea; peptide 100 μM
  Plate antimicrobial activity test Botrytis cinerea, level: 0
Pyricularia oryzae; peptide 1 μM
  Plate antimicrobial activity test Pyricularia oryzae, level: 0
Pyricularia oryzae; peptide 10 μM
  Plate antimicrobial activity test Pyricularia oryzae, level: 0
Pyricularia oryzae; peptide 100 μM
  Plate antimicrobial activity test Pyricularia oryzae, level: 0
[1]; peptide 1 μM
  Plate antimicrobial activity test Colletotrichum destructivum, level: 0
[1]; peptide 10 μM
  Plate antimicrobial activity test Colletotrichum destructivum, level: 0
[1]; peptide 100 μM
  Plate antimicrobial activity test Colletotrichum destructivum, level: 0
[2]; peptide 1 μM
  Plate antimicrobial activity test Colletotrichum orbiculare, level: 0
[2]; peptide 10 μM
  Plate antimicrobial activity test Colletotrichum orbiculare, level: 0
[2]; peptide 100 μM
  Plate antimicrobial activity test Colletotrichum orbiculare, level: 0

## VVKTK (listed as Solanum lycopersicum) [TsORF6-1-5aa-6, partial peptide of TsORF6-1, 5 amino acid residues]
Fusarium oxysporum
  Plate antimicrobial activity test Fusarium oxysporum, level: 0
Botrytis cinerea; peptide 1 μM
  Plate antimicrobial activity test Botrytis cinerea, level: 0
Botrytis cinerea; peptide 10 μM
  Plate antimicrobial activity test Botrytis cinerea, level: 0
Botrytis cinerea; peptide 100 μM
  Plate antimicrobial activity test Botrytis cinerea, level: 0
Pyricularia oryzae; peptide 1 μM
  Plate antimicrobial activity test Pyricularia oryzae, level: 0
Pyricularia oryzae; peptide 10 μM
  Plate antimicrobial activity test Pyricularia oryzae, level: 0
Pyricularia oryzae; peptide 100 μM
  Plate antimicrobial activity test Pyricularia oryzae, level: 0
[1]; peptide 1 μM
  Plate antimicrobial activity test Colletotrichum destructivum, level: 0
[1]; peptide 10 μM
  Plate antimicrobial activity test Colletotrichum destructivum, level: 0
[1]; peptide 100 μM
  Plate antimicrobial activity test Colletotrichum destructivum, level: 0
[2]; peptide 1 μM
  Plate antimicrobial activity test Colletotrichum orbiculare, level: 0
[2]; peptide 10 μM
  Plate antimicrobial activity test Colletotrichum orbiculare, level: 0
[2]; peptide 100 μM
  Plate antimicrobial activity test Colletotrichum orbiculare, level: 0

## VVKTKVKN (listed as Solanum lycopersicum) [TsORF6-1-8aa-6, partial peptide of TsORF6-1, 8 amino acid residues]
Fusarium oxysporum
  Plate antimicrobial activity test Fusarium oxysporum, level: 0
Botrytis cinerea; peptide 1 μM
  Plate antimicrobial activity test Botrytis cinerea, level: 0
Botrytis cinerea; peptide 10 μM
  Plate antimicrobial activity test Botrytis cinerea, level: 0
Botrytis cinerea; peptide 100 μM
  Plate antimicrobial activity test Botrytis cinerea, level: 0
Pyricularia oryzae; peptide 1 μM
  Plate antimicrobial activity test Pyricularia oryzae, level: 0
Pyricularia oryzae; peptide 10 μM
  Plate antimicrobial activity test Pyricularia oryzae, level: 0
Pyricularia oryzae; peptide 100 μM
  Plate antimicrobial activity test Pyricularia oryzae, level: 0
[1]; peptide 1 μM
  Plate antimicrobial activity test Colletotrichum destructivum, level: 0
[1]; peptide 10 μM
  Plate antimicrobial activity test Colletotrichum destructivum, level: 0
[1]; peptide 100 μM
  Plate antimicrobial activity test Colletotrichum destructivum, level: 0
[2]; peptide 1 μM
  Plate antimicrobial activity test Colletotrichum orbiculare, level: 0
[2]; peptide 10 μM
  Plate antimicrobial activity test Colletotrichum orbiculare, level: 0
[2]; peptide 100 μM
  Plate antimicrobial activity test Colletotrichum orbiculare, level: 0
